From patent US20240174621A1, “METHYLQUINAZOLINONE DERIVATIVES” (Hoffmann-La Roche Inc., priority 2019, published 2024)
Read-outs that look alike come from different tables or passages of the source.

Tests used:
[1] = test system: P-ERK in A375 cells expressing V600E mutated BRAF; experiment: cells; format: cell-based; settings: Homo sapiens, A-375, 1 h, read-out: pERK IC50 (nM) A375
Description: (§1) DMEM no-phenol red medium supplemented with L-glutamine was purchased from (Thermo Fisher Scientific). Fetal bovine serum (FBS) was purchased from VWR. Advanced ERK phospho-T202/Y204 kit—10,000 tests was purchased from Cisbio cat #64AERPEH. A375 and HCT116 cells were originally obtained from ATCC and banked by the Roche repository.
(§2) A375 is a cellular cancer model expressing V600E mutated BRAF and HCT116 a cellular cancer model expressing WT BRAF. […] ERK 1,2 phosphorylation (terminal member of the phosphorylation cascade of the MAPK pathway) is hereafter reported as main readout for the activation status of the MAPK pathway. Prior to the assay, A375 and HCT116 cell lines are maintained in DMEM no-phenol red medium supplemented with 10% fetal bovine serum (FBS). […] Briefly, 8000 cells/well in 12 μl media/well are plated in the 384-well plate and left overnight in the incubator (at 37° C. with 5% CO2-humidified atmosphere), the following day the plate is treated in duplicate with test compounds, dabrafenib and PLX8394 (the latter two as controls) at the following final drug concentrations: 10 μM-3 μM-1 μM all wells are subjected to DMSO normalization and drug incubation occurs for 1 hour. Then, 4 μl of a 4× lysis buffer supplied with the kit are added to the wells, the plate is then centrifuged for 30 second (300 rcf) and incubated on a plate shaker for 1 h at RT.
At the end of the incubation 4 μL/well of advanced P-ERK antibody solution (prepared according to manufacturer's instruction) followed by 4 μL/well of criptate P-ERK antibody solution (prepared according to manufacturer's instruction) (Cisbio cat #64AERPEH) are added to test wells. […]
(§3) The obtained fluorescence values are processed according to the formula Ratio=[…]*10000 then the average of the ratio on the blank is subtracted to all values.
Mean of the normalized points are fitted with sigmoidal curve and IC50 determined.

[2] = test system: P-ERK in HCT116 cells expressing WT BRAF; format: cell-based
Description: as §1, with “repository. 384-well microplates were purchased from Greiner Bio-One, 384-well, (With Lid, HiBase, Low volume cat 784-080).” for “repository.”
as §2
At the end of the incubation 4 μL/well of advanced P-ERK antibody solution (prepared according to manufacturer's instruction) followed by 4 μL/well of criptate P-ERK antibody solution (prepared according to manufacturer's instruction) (Cisbio cat #64AERPEH) are added to test wells.
In order to allow proper data normalization control wells non drug treated reported in the following table are always included in each plate (according to manufacturer's instruction):
The plate is then centrifuged at 300 rcf for 30 second, sealed to prevent evaporation and incubated overnight in the dark at room temperature.
The plate is then analyzed and fluorescence emission value collected through a Pherastast FSX (BMG Labtech) apparatus at […].
as §3
Data are normalized in the case of HCT116 cells (BRAF activation,) considering the average of the ratio (blank subtracted) derived by DMSO only treated cells as 0% and by considering the average of the ratio (blank subtracted) derived by dabrafenib treated cells at the concentration which provides the highest signal as 100%. Individual points are fitted with either sigmoidal or bell shape curves, and the percentage of activation compared to maximum dabrafenib-mediated activation is determined. The EC50 is the concentration at which activation equal to 50% of the maximum achieved by dabrafenib is obtained.
The Percentage of Maximum paradox inducing effect from dabrafenib is determined by evaluating the percentage at which the test compound induce its maximum P-ERK signal as percentage of the highest signal produced by dabrafenib within the dose range tested.

[3] = literature; cited from earlier work
P-gp = P-gp apical efflux ratio, LLC-PK1 cell line transfected with MDR1; format: in vitro ADME
Plasma protein binding = format: in vitro ADME; settings: mouse, rat, minipig, monkey, human
[4] = CSF Kp,uu measurement for brain penetration, mouse; format: in vivo; settings: Single oral dose 10 mg/kg
Protocol: (§4) The CSF Kp,uu is the ratio of the concentration in cerebrospinal fluid (CSF): unbound plasma exposure and Kp,uu values≥1 indicate good brain penetration. For compound Example 1, single oral dose studies in mouse and rat, sequential plasma and CSF concentrations (up to 24 h post dose) were measured by LC-MS/MS to calculate the CSF Kp,uu. For multiple oral dose studies in rat and minipig the plasma and CSF concentrations approximating Tmax (3 h post last dose) were measured by LC-MS/MS and used to calculate the CSF Kp,uu.

[5] = CSF Kp,uu measurement for brain penetration, rat; format: in vivo
Protocol: as §4

[6] = CSF Kp,uu measurement for brain penetration, minipig; format: in vivo; settings: Multiple oral dosing @ 300 mg/kg/day (2-week DRF)
Protocol: as §4

[7] = test system: A375 BRAF V600E cancer cells constituvely expressing luciferase; experiment: Intracranial implanted A375-Luc; format: in vivo; settings: daily oral 1, 5 and 20 mg/kg for 2 weeks from day 7; immunocompromised mice
Protocol: A375 BRAF V600E cancer cells constituvely expressing luciferase were injected intracranially in immunocompromised mice. Treatment with compound Example 1 was initiated at day 7 from the intracranial injection and continued for 2 weeks. The different groups were subject to daily oral administration of 1 mg/kg, 5 mg/kg and 20 mg/kg of Example 1 respectively.

[8] = BCS (biopharmaceutics classification system); format: physicochemical
[9] = read-out: p-ERK EC50 (nM) conc. (nM) at which the compound induces P-ERK activation of 50% of that induced by dabrafenib (Positive control paradox inducer) HCT-116; HCT-116 cells; not applicable if activation does not reach 50% of dabrafenib maximum
[10] = HCT-116 cells; maximum P-ERK signal as percentage of highest dabrafenib signal

Compound `CCCS(=O)(=O)Nc1ccc(F)c(Oc2ccc3ncn(C)c(=O)c3c2)c1C#N` [AR-25] has an IC50 [1] of 1.1 nM and an EC50 [2, 9] of 9.6 nM.

For `COC(=O)N[C@@H](C)CNc1nccc(-c2cn(C(C)C)nc2-c2cc(Cl)cc(NS(C)(=O)=O)c2F)n1` [Encorafenib], the Brain permeability [3] is listed as “very poor brain permerability”.

With `Cn1cnc2ccc(Oc3c(Cl)ccc(NS(=O)(=O)N4CCCC4)c3C#N)cc2c1=O` [AR-31] the IC50 [1] was 311 nM, the “Percentage of Maximum paradox inducing effect from dabrafenib” value (shortened to “Percentage”) [2, 10] was 51.2% and the EC50 ([2]; HCT-116 cells; not applicable if activation does not reach 50% of dabrafenib maximum; read-out: p-ERK EC50 (nM) conc. (nM) at which the compound induces P-ERK activation of 50% of that induced by dabrafenib (Positive control paradox inducer) HCT-116) was greater than 1000 nM.

For `CC(C)(C)c1nc(-c2cccc(NS(=O)(=O)c3c(F)cccc3F)c2F)c(-c2ccnc(N)n2)s1` [Dabrafenib], the Brain permeability [3] is given as “very poor brain permerability”.

With `Cn1cnc2ccc(Oc3c(F)ccc(NS(=O)(=O)N4CC[C@H](F)C4)c3C#N)cc2c1=O` [Example 2, (3S)-N-[2-cyano-4-fluoro-3-(3-methyl-4-oxo-quinazolin-6-yl)oxy-phenyl]-3-fluoro-pyrrolidine-1-sulfonamide] the “Percentage” value [2, 10] was 46.2%.

In the case of `Cn1cnc2ccc(Oc3c(F)ccc(NS(=O)(=O)N4CC[C@@H](F)C4)c3C#N)cc2c1=O` [Example 1, (3R)-N-[2-cyano-4-fluoro-3-(3-methyl-4-oxo-quinazolin-6-yl)oxy-phenyl]-3-fluoro-pyrrolidine-1-sulfonamide], the “P-gp Apical Efflux ratio, Class” value (P-gp; LLC-PK1 transfected with MDR1) is reported as “Low”, the efflux ratio (P-gp; human, LLC-PK1 transfected with MDR1, presence/absence of P-gp inhibitor) is reported as 1.5 and the “Plasma protein binding, Class” value (Plasma protein binding) is reported as “Very high”. The fraction unbound (Plasma protein binding; plasma) was no more than 0.01, the “Mouse CSF Kp,uu, Class” value [4] was “High” and the Kp uu ([4]; mouse, CSF / unbound plasma) was no less than 1. The “Rat CSF Kp,uu, Class” value ([5]; Multiple oral dosing @ 300 mg/kg/day (2-week DRF)) was “High”, the “Rat CSF Kp,uu, Class” value ([5]; Single oral dose 20 mg/kg) was “High” and the Kp uu at 3 h ([5]; rat, CSF / unbound plasma, Multiple oral dosing @ 300 mg/kg/day (2-week DRF), 3 h post last dose) was no less than 1. The Kp uu ([5]; rat, CSF / unbound plasma, Single oral dose 20 mg/kg) was no less than 1, the “Temporal relationship of plasma and CSF (distribution into CSF)” value ([5]; single dose rat PK study, up to 24 h post dose) was “(PK) study and indicated fast and extensive distribution into CSF” and the “Minipig CSF Kp,uu, Class” value [6] was “High”. The Kp uu at 3 h ([6]; minipig, CSF / unbound plasma, 3 h post last dose) was no less than 1, the “Antitumor activity, intracranial A375-Luc” value [7] was “dose dependent antitumor activity” and the “BCS (biopharmaceutics classific. system) Class” value [8] was 2.

For `CCCS(=O)(=O)Nc1ccc(F)c(C(=O)c2c[nH]c3ncc(-c4ccc(Cl)cc4)cc23)c1F` [Vemurafenib], the Brain permeability [3] is given as “very poor brain permerability”.

For `CN(C)S(=O)(=O)Nc1ccc(Cl)c(Oc2ccc3ncn(C)c(=O)c3c2)c1C#N` [AR-30], the IC50 [1] was 406 nM, the “Percentage” value [2, 10] was 59% and the EC50 [2, 9] was greater than 1000 nM.
